Where no end group is shown, it is not given here. [ ]: non-standard residue; d: D form. The star is where a group is joined. Phe(4-Cl) = N[C@@H](Cc1ccc(Cl)cc1)C(=O)O; dPhe(4-Cl) = N[C@H](Cc1ccc(Cl)cc1)C(=O)O; dPhe(4-F) = N[C@H](Cc1ccc(F)cc1)C(=O)O; 2Nal = N[C@@H](Cc1ccc2ccccc2c1)C(=O)O; d2Nal = N[C@H](Cc1ccc2ccccc2c1)C(=O)O; Fmoc = O=C(OCC1c2ccccc2-c2ccccc21)*; 2Thi = N[C@@H](Cc1cccs1)C(=O)O; Cha = N[C@@H](CC1CCCCC1)C(=O)O
What was measured:
Jurkat leukemia cells = test: Jurkat leukemia cell death, Annexin V/propidium iodide flow cytometry; type: cell-based; conditions: for cells killed: one day treatment
Description: The following assay was used to test the ability of individual compounds from the TPI 1396 and TPI 1391 libraries to induce apoptosis of cultured tumor cell lines. Each of the compounds listed in Table IX was individually added to Jurkat leukemia cells (6.25×10^5 cells/mL) in RPMI containing 2.5% FBS at various concentrations for 20 hours. After incubation, cells were washed and stained with FITC-conjugated Annexin V antibody and propidium iodide (Biovision; Mountain View, Calif.). Cells were incubated for 20 minutes at room temperature in the dark and fluorescence was measured by flow cytometry (FACScan, Immunocytometry system; Becton-Dickinson; San Jose, Calif.). Cells staining positive for Annexin V were deemed non-viable.
The TPI I396-34 and TPI 1391-28 compounds were further tested as set forth below.

[1] = test system: normal bone marrow mononuclear cells; test: Normal bone marrow mononuclear cells versus Jurkat, Annexin V, 20 hours; type: cell-based; conditions: 5 μM
Description: After incubation, cells were washed, stained with FITC-conjugated Annexin V antibody and propidium iodide, and fluorescence measured by flow cytometry as described above.

full length XIAP = full length XIAP (Homo sapiens, UniProt P98170); test: Potency of IAP antagonists in vitro (Table VIII; caspase derepression / SMAC competition with full length XIAP); conditions: for Relative Potency (fold versus SMAC peptide): SMAC AVPI tetrapeptide = 1.0; for EC50: amount of compound necessary to restore caspase-3 activity to 50% of Vmax
XIAP-inhibited caspase-3 = target: T1, XIAP-inhibited caspase-3 (Homo sapiens, UniProt P98170); test: IAP derepression assay: Ac-DEVD-AFC hydrolysis by caspase-3 in the presence of GST-XIAP; type: biochemical; conditions: for LC (lowest concentration with a ratio of 2 or higher in the derepression assay): tested at 0.4, 2, 10 and 50; for reversing XIAP-mediated suppression of caspase 3: 50 μg/ml, full length XIAP
T1 construct: in a caspase derepression assay using full length XIAP; made in house; host or cells: bacteria
Description: The ratio of Vmax for hydrolysis of Ac-DEVD-AFC in the presence and absence of the candidate mixture was calculated and used to identify those that contain an agent that derepresses an IAP-inhibited caspase.
Each mixture was aliquoted in a 25 microliter volume and in duplicate to a well of a 96 well microtiter plate. […] Fluorescence of liberated AFC was immediately detected from each well for 30 minutes at 30 second intervals. The Vmax for hydrolysis of AC-DEVD-AFC from each well was measured using the softmax software package.

GST-XIAP (human) = GST-XIAP (human) (UniProt P98170); test: cell-based or functional assay
GST-XIAP (human), sequence (P98170 whole entry): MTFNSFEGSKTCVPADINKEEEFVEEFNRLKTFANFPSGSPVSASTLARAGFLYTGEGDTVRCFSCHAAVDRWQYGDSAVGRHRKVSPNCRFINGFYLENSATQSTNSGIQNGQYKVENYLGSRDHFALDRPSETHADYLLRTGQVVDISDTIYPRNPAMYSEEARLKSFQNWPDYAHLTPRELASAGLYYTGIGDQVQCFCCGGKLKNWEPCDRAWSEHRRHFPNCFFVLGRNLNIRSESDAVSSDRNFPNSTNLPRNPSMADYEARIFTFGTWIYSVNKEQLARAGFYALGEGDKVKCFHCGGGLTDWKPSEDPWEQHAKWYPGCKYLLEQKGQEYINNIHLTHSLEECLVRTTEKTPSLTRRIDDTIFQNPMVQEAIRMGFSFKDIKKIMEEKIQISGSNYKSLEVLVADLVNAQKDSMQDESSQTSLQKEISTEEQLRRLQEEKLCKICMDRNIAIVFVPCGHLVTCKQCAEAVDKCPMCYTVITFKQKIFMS

T1 sequence (P98170 whole entry): as above
full length XIAP, sequence (P98170 whole entry): as above

## CC(C)Cc1ccc(C(C)CN2C(=O)C(=O)N([C@H](CNCc3ccccc3)Cc3ccc4ccccc4c3)C[C@H]2CC(C)C)cc1 (stereo partly shown) [TPI 1391-25]
Jurkat leukemia cells; 1 µM
  % nonviable cells: 16%
Jurkat leukemia cells; 10 µM
  % nonviable cells: 60%
Jurkat leukemia cells; 25 µM
  % nonviable cells: 90%
Jurkat leukemia cells; 50 µM
  % nonviable cells: 87%

## CC(C)C[C@@H]1CN([C@H](CNCc2ccccc2)Cc2ccc3ccccc3c2)C(=O)C(=O)N1CCc1cccc(C(F)(F)F)c1 [TPI 1391-28]
[1]
  toxicity to normal bone marrow cells: little toxicity
Jurkat leukemia cells; 1 µM
  % nonviable cells: 19%
Jurkat leukemia cells; 5 μM
  cells killed: about 45%
Jurkat leukemia cells; 8 μM
  cells killed: ~80%
Jurkat leukemia cells; 10 µM
  % nonviable cells: 55%
Jurkat leukemia cells; 25 µM
  % nonviable cells: 87%
Jurkat leukemia cells; 50 µM
  % nonviable cells: 91%
Jurkat leukemia cells; one-day exposure, read-out: EC50 for killing Jurkat leukemia cells
  EC50: ~6.5 µM
Full length XIAP
  Relative Potency (fold versus SMAC peptide): 5
  EC50: 25.1 µM

## CCCC[C@H](CNCc1ccccc1)N1C[C@@H](CC(C)C)N(CC2CCC(C(C)(C)C)CC2)C(=O)C1=O (stereo partly shown) [TPI 1391-17]
Jurkat leukemia cells; 1 µM
  % nonviable cells: 13%
Jurkat leukemia cells; 5 µM
  % nonviable cells: 25%
Jurkat leukemia cells; 10 µM
  % nonviable cells: 45%
Jurkat leukemia cells; 25 µM
  % nonviable cells: 88%
Jurkat leukemia cells; 50 µM
  % nonviable cells: 91%

## (D-Nal)-(D-pClPhe)-(L-pClPhe)-(Lys-εFmoc) ([d2Nal][dPhe(4-Cl)][Phe(4-Cl)]K(Fmoc)) [TPI 792-9]
XIAP-inhibited caspase-3
  LC (lowest concentration with a ratio of 2 or higher in the derepression assay): 10 µg/mL

## CCCCCCCN1C(=O)C(=O)N([C@H](CCCC)CNCc2ccccc2)C[C@@H]1Cc1ccc2ccccc2c1 [TPI 1391-21]
Jurkat leukemia cells; 1 µM
  % nonviable cells: 16%
Jurkat leukemia cells; 10 µM
  % nonviable cells: 44%
Jurkat leukemia cells; 25 µM
  % nonviable cells: 91%
Jurkat leukemia cells; 50 µM
  % nonviable cells: 94%
Full length XIAP
  Relative Potency (fold versus SMAC peptide): 3.7
  EC50: 33.6 µM

## COc1ccc(CCN(CCCC[C@@H](CN(C(=O)Nc2ccccc2)[C@@H](CNC(=O)Nc2ccccc2)CC2CCCCC2)N(C)C(=O)Nc2ccccc2)C(=O)Nc2ccccc2)cc1 [TPI 1396-25]
XIAP-inhibited caspase-3; XIAP derepression assay
  Activity* (relative caspase-3 activity: Vmax in the presence of compound / Vmax of controls having caspase-3 and XIAP): 1.6

## (L-ThiAla)-(Lys-εFmoc)-(D-Nal)-(Lys-εFmoc) ([2Thi]K(Fmoc)[d2Nal]K(Fmoc)) [TPI 792-19]
XIAP-inhibited caspase-3
  LC (lowest concentration with a ratio of 2 or higher in the derepression assay): 2 µg/mL

## (L-ThiAla)-(Lys-εFmoc)-(L-pClPhe)-(pF-D-F) ([2Thi]K(Fmoc)[Phe(4-Cl)][dPhe(4-F)]) [TPI 792-22]
XIAP-inhibited caspase-3
  LC (lowest concentration with a ratio of 2 or higher in the derepression assay): 2 µg/mL

## (L-Cha)-(D-Nal)-(L-Trp)-(L-ThiAla) ([Cha][d2Nal]W[2Thi]) [TPI 1332-41]
XIAP-inhibited caspase-3
  reversing XIAP-mediated suppression of caspase 3: Active

## (L-ThiAla)-(D-pClPhe)-(L-pClPhe)-(Lys-εFmoc) ([2Thi][dPhe(4-Cl)][Phe(4-Cl)]K(Fmoc)) [TPI 792-27]
XIAP-inhibited caspase-3
  LC (lowest concentration with a ratio of 2 or higher in the derepression assay): 2 µg/mL

## (L-Ala)-(L-Trp)-(L-Trp)-(L-ThiAla) (AWW[2Thi]) [TPI 1332-1]
XIAP-inhibited caspase-3
  reversing XIAP-mediated suppression of caspase 3: Active

## (D-Nal)-(L-Nal)-(D-Lys-εFmoc)-(Lys-εFmoc) ([d2Nal][2Nal][dK](Fmoc)K(Fmoc)) [TPI 792-17]
XIAP-inhibited caspase-3
  LC (lowest concentration with a ratio of 2 or higher in the derepression assay): 2 µg/mL

B1: SMAC peptide (H-Ala-Val-Pro-Ile-Ala-Gln-Lys-NH2) (peptide)
chain: H-AVPIAQK-NH2
GST-XIAP (human)
  Vmax(mix + casp3 + XIAP)/Vmax(casp3 + XIAP): 3.8
